In brackets after ≈: the same amount, converted by molar mass.
What was measured:
[1] = tested on: T. brucei brucei blood stream forms; set-up: method as in PMID 16557466; details: cited from earlier work
[2] = tested on: L. donovani promastigotes; assay: Leishmania donovani promastigote assay (Alamar Blue); format: cell-based; details: 72 h, 26 °C, tested concentrations (µg/mL) 20–0.8 extracts, 10–0.4 pure compounds and pentamidine, 2.0–0.08 amphotericin B, NA = not active
Method: (§1) EO and extracts (A-D) at a stock concentration of 20 mg/mL were dilute to 4 mg/mL with DMSO. The obtained solutions (4 mg/mL) were four-fold diluted with incomplete RPMI medium to 1 mg/mL. Pure compounds at a stock concentration of 2 mg/mL in DMSO were diluted four-fold with incomplete RPMI medium to 0.5 mg/mL.
(§2) The extracts and pure compounds (highest concentrations 20 µg/mL for extracts and 10 µg/mL for pure compounds) were subject to different tests, namely Leishmania donovani promastigote assay, L. donovani axenic amastigote assay, L. donovani THP1 macrophage amastigote assay, Trypanosoma brucei trypamastigotes assay and THP1 toxicity assay. Alamar Blue assay was perform as previously described by other authors.
(§3) These assays have been adapted to 384-well micro-plate format. A 3–4 days old culture of Leishmania donovani promastigotes harvested in the exponential growth phase was diluted with RPMI medium to 1 × 10^6 cells/mL for promastigote assays. A 3–4 days old culture of Leishmania donovani axenic amastigotes was diluted with RPMI medium to 2 × 10^6 cells/mL for axenic amastigote assays. A 2 days old culture of Trypanosoma brucei harvested in the exponential phase was diluted with Iscove's Modified Dulbecco's Medium (IMDM) to 5 × 10^3 cells/mL for the antitrypanosomal assay.
(§4) Samples were added to the L. donovani promastigotes, L. donovani axenic amastigotes or T. brucei trypamastigotes cultures. The extracts were initially test at single concentrations of […] for primary screening. The active extracts and pure compounds were test at three or six concentrations ranging from 10 to 0.0032 µg/mL. The plates were incubated at 26 °C for 72 h (37 °C for axenic amastigotes and T. brucei trypamastigotes) and growth of cultured parasites was determined by the Alamar Blue assay [32 33].

[3] = tested on: L. donovani axenic amastigotes; assay: L. donovani axenic amastigote assay (Alamar Blue); format: cell-based; details: Leishmania donovani; first Amastigote column; 72 h, 37 °C; tested concentrations (µg/mL) 20–0.8 extracts, 10–0.4 pure compounds and pentamidine, 2.0–0.08 amphotericin B; NA = not active
Method: as §1, §2
These assays have been adapted to 384-well micro-plate format. A 3–4 days old culture of Leishmania donovani promastigotes harvested in the exponential growth phase was diluted with RPMI medium to 1 × 10^6 cells/mL for promastigote assays. […]
Samples were added to the L. donovani promastigotes, L. donovani axenic amastigotes or T. brucei trypamastigotes cultures. […] The plates were incubated at 26 °C for 72 h (37 °C for axenic amastigotes and T. brucei trypamastigotes) and growth of cultured parasites was determined by the Alamar Blue assay [32 33].

[4] = tested on: human HepG2 hepatoma cells; assay: Inhibition of cellular oxidative stress assay (ABAP, DCFH-DA); format: cell-based
Method: The cellular antioxidant activity of S. ceratophylla EO and other extracts was measured in human HepG2 hepatoma cells This assay determines the ability of test samples to prevent intracellular generation of peroxyl radicals in response to 2,2- azobis (2-amidinopropane) dihydrochloride (ABAP, Sigma-Aldrich, St Louis, MO, USA).
HepG2 cells were culture in Dulbecco's Modified Eagle Medium (DMEM) supplemented with 10% fetal bovine serum (FBS), 50 units/mL penicillin and 50 µg/mL streptomycin. Cells were seed in 96-well plates (60,000 cells/well) and incubated for 24 h. The tested samples were diluted in serum free medium containing 25 µM 2^′,7′, dichoroflouresceine diacetate (DCFH-DA, Invitrogen, Carlsbad, CA, USA). The cells were wash with PBS and treated with test samples during 1 h. The medium containing tested samples was removed, ABAP (600 µM) was added and the plate was immediately placed on a Spectra Max plate reader for kinetic reading every 5 min during 1 h (37 °C, emission at 538 nm and excitation at 485 nm). Quercetin (Sigma-Aldrich) was use as positive control. To calculate the percentage of decrease in oxidative stress, the Area Under the Curve (AUC) of fluorescence versus time was used. Decrease in oxidative stress%=AUC control^100-[AUC tested sample×100]

[5] = tested on: NF-κB; assay: Inhibition of NF-κB activity, luciferase reporter in SW 1353 cells; format: cell-based; details: Homo sapiens, SW1353; SW 1353, PMA 70 ng/mL, 8 h; NA = not active at tested concentration
Method: The inhibition activity of tested samples against NF-κB was evaluate as described. The SW 1353 human chondrosarcoma cell line was culture in a mixture of Dulbecco's Modified Eagle's Medium (DMEM) and Ham's F-12 Nutrient (DMEM/F12) supplemented with 10% FBS, 100 U/Ml penicillin and 100 µg/mL streptomycin. Cultured cells were washed in antibiotic and FBS-free DMEM/F12 medium and then re-suspended in FBS-free DMEM/F12 medium containing 2.5% FBS. NF-κB luciferase plasmid construct was added to the cell suspension in a concentration of 50 µg/mL and incubated for 5 min at 25 °C. The cells were transfected by electroporation at 160 V and one 70 ms pulse using BTX disposable cuvettes (model 640 in a BTX Electro Square Porator T 820—BTX I, San Diego, CA, USA), Transfected cells were plate in 96-well plates at a density of 1.25 × 10^5cells per well in 200 µL of DMEM/F12 containing 10% FBS and antibiotics. After incubation for 24 h, the cells were treated with test samples for 30 min and then induced with PMA (70 ng/mL) for 8 h. The inhibition of NF-κB activity by EO, other extracts, and pure compounds was calculated in comparison to vehicle control. The IC50 values were obtain from the dose curves. Parthenolide was use as positive control.

[6] = tested on: transcription factor Sp-1; assay: Sp-1 inhibition; format: cell-based; details: NA = not active at tested concentration
[7] = tested on: skin malignant melanoma (SK-MEL); assay: Cytotoxic activity, Neutral Red assay, SK-MEL; format: cell-based; details: Homo sapiens; 48 h; NA = not active at 10 µg/mL for pure compound, at 100 µg/mL for extracts
Method: (§5) All cell lines used in this study were purchase from American Type Culture Collection (ATCC, Rockville, MD). The cytotoxic activity of the EO, extracts isolated from S. ceratophylla and pure compounds was determined in vitro against various human cancer cells: skin malignant melanoma (SK-MEL), human KB carcinoma (KB), breast ductal carcinoma (BT-549), ovarian carcinoma (SK-OV-3), and in two non-cancerous mammalian kidney cell lines (LLC-PK1 and VERO). Cells were seed at a density of 25,000 cells/well and incubated during 24 h. The tested EO, extracts and pure compounds were added separately at studied concentrations and cells were re-incubated during 48 h. After incubation time, the viability of cells was assessed by using Neutral Red Dye as described. DMSO was use as negative control and doxorubicin as positive control.

[8] = tested on: human KB carcinoma (KB); assay: Cytotoxic activity, Neutral Red assay, KB; format: cell-based; details: 48 h, NA = not active at 10 µg/mL for pure compound, at 100 µg/mL for extracts
Method: as §5

[9] = tested on: breast ductal carcinoma (BT-549); assay: Cytotoxic activity, Neutral Red assay, BT-549; format: cell-based; details: Homo sapiens, 48 h, NA = not active at 10 µg/mL for pure compound, at 100 µg/mL for extracts
Method: as §5

[10] = tested on: ovarian carcinoma (SK-OV-3); assay: Cytotoxic activity, Neutral Red assay, SK-OV-3; format: cell-based; details: Homo sapiens, 48 h, NA = not active at 10 µg/mL for pure compound, at 100 µg/mL for extracts
Method: as §5

[11] = Cytotoxic activity, Neutral Red assay, LLC-PK1; format: cell-based; details: pig, LLC-PK1 kidney epithelial cells (non-cancerous), NA = not active at 10 µg/mL for pure compound, at 100 µg/mL for extracts
Method: as §5

[12] = Cytotoxic activity, Neutral Red assay, Vero; format: cell-based; details: African green monkey, Vero kidney fibroblast cells (non-cancerous), NA = not active at 10 µg/mL for pure compound, at 100 µg/mL for extracts
Method: as §5

[13] = tested on: NO production in mouse macrophage cells (RAW 264.7); assay: Nitric oxide (NO) measurement, LPS-stimulated macrophages, Griess reagent; format: cell-based; details: RAW264.7, RAW 264.7, LPS 5 µg/mL, 24 h, NA = not active at tested concentration, read-out: NO inhibition IC50
Method: The NO inhibition by EO, extracts of S. ceratophylla and pure compounds, was assess by the following methodology. Briefly, mouse macrophage cells (RAW 264.7) were culture in phenol red free RPMI medium with 10% bovine calf serum and 100 U/mL penicillin and 100 µg/mL streptomycin.
Cells were seed in 96-well plates (50,000 cells/well) and incubated during 24 h. The tested samples were dilute in serum free medium, incubated during 30 min, then lipopolysaccharide (LPS, 5 µg/mL) was added and cells were incubated for further 24 h. The level of nitrite in the cell supernatant was measure by using Griess reagent. The inhibition of nitrite production by the tested samples was calculate in comparison to the vehicle control. Parthenolide (Sigma-Aldrich) was use as positive control. IC50 values were obtain from dose curves.

[14] = tested on: several cancer cell lines; set-up: method as in earlier work; details: up to a concentration of 200 μg/mL; cited from earlier work
[15] = tested on: carrageenin-induced hind paw edema; set-up: method as in PMID 23334570; details: dose of 25 mg/kg, p = 0.03; cited from earlier work
[16] = tested on: L. amazonensis promastigotes; set-up: method as in PMID 12760864; details: cited from earlier work
[17] = tested on: differentiated THP1 cells; assay: THP1 toxicity assay (Alamar Blue); format: cell-based; details: Homo sapiens, THP-1; 48 h; tested concentrations (µg/mL) 20–0.8 extracts, 10–0.4 pure compounds and pentamidine, 2.0–0.08 amphotericin B; NA = not active
Method: Alamar Blue assay was perform as previously described by other authors. […] PMA was added to a final concentration of 25 ng/mL. A PMA treated culture was dispense in experimental culture plates and incubated overnight at 37 °C in a 5% CO2 incubator. The plates with differentiated THP1 cells were wash with serum-free medium. For THP1 toxicity assay, the diluted test samples (extracts or pure compounds) were add over differentiated THP1 cells and plates were incubated during 48 h at 37 °C in a 5% CO2 incubator. Cell growth was determined by the Alamar Blue assay.

[18] = tested on: T. brucei trypamastigotes; assay: Trypanosoma brucei trypamastigotes assay (Alamar Blue); format: cell-based; details: 72 h, 37 °C, tested concentrations (µg/mL) 20–0.8 extracts and DFMO, 10–0.4 pure compounds, NA = not active
Method: as §1, §2, §3, §4

[19] = compounds of Strychnos spinosa EO

C=CC(C)(O)CCC=C(C)CCC=C(C)C (mixture of isomers) [nerolidol]
IC50 towards Trypanosoma [1, 19]: 1.7 µg/mL | selectivity index (SI) towards Trypanosoma [1, 19]: 35.7

C[C@@H]1[C@H](O)[C@@H](C)/C=C/C=C/C=C/C=C/C=C/C=C/C=C/[C@H](O[C@@H]2O[C@H](C)[C@@H](O)[C@H](N)[C@@H]2O)C[C@@H]2O[C@](O)(C[C@@H](O)C[C@@H](O)[C@H](O)CC[C@@H](O)C[C@@H](O)CC(=O)O[C@H]1C)C[C@H](O)[C@H]2C(=O)O [Amphotericin B]
IC50 [2]: 0.14 µg/mL (≈ 0.152 µM) | IC90 [2]: 0.324 µg/mL (≈ 0.351 µM) | IC50 [3]: 0.181 µg/mL (≈ 0.196 µM)

C=C1CC/C=C(\C)CC[C@@H]2[C@@H]1CC2(C)C [Caryophyllene, (-)trans-Caryophyllene]
% decrease in oxidative stress ([4]; 250 µg/mL, pure compounds, NA = not active at tested concentration): 31% | % decrease in oxidative stress ([4]; 500 µg/mL, pure compounds, NA = not active at tested concentration): 35% | IC50 [5]: 45 µg/mL (≈ 220 µM) | IC50 [6]: 48 µg/mL (≈ 235 µM)

COc1cccc2c1C(=O)c1c(O)c3c(c(O)c1C2=O)C[C@@](O)(C(=O)CO)C[C@@H]3O[C@H]1C[C@H](N)[C@H](O)[C@H](C)O1 [Doxorubicin]
IC50 [7]: 0.8 µg/mL (≈ 1.47 µM) | IC50 [8]: 1.4 µg/mL (≈ 2.58 µM) | IC50 [9]: 0.85 µg/mL (≈ 1.56 µM) | IC50 [10]: 2 µg/mL (≈ 3.68 µM) | IC50 at 48 h [11]: 1.2 µg/mL (≈ 2.21 µM) | IC50 at 48 h [12]: > 5 µg/mL

C=CC(C)(O)CCC=C(C)C (stereo not drawn) [Linalool]
IC50 [13]: 18 µg/mL (≈ 117 µM) | cytotoxic activity against several cancer cell lines [14]: did not exhibit cytotoxic activity | inhibition of carrageenin-induced hind paw edema [15]: 55% | MIC, viability of L. amazonensis promastigotes [16]: 0.085 ng/mL | IC50 towards Trypanosoma [1, 19]: 2.5 µg/mL (≈ 16.2 µM)

C=C1C(=O)O[C@H]2[C@H]1CC/C(C)=C/CC[C@@]1(C)O[C@@H]21 [Parthenolide]
IC50 [13]: 0.48 µg/mL (≈ 1.93 µM) | IC50 [5]: 0.33 µg/mL (≈ 1.33 µM)

N=C(N)c1ccc(OCCCCCOc2ccc(C(=N)N)cc2)cc1 [Pentamidine]
IC50 [2]: 1.02 µg/mL (≈ 3.01 µM) | IC90 [2]: 9.28 µg/mL (≈ 27.3 µM) | IC50 [3]: 3.8 µg/mL (≈ 11.2 µM) | IC90 [17]: 1.74 µg/mL (≈ 5.1 µM)

O=c1c(O)c(-c2ccc(O)c(O)c2)oc2cc(O)cc(O)c12 [Quercetin]
% decrease in oxidative stress ([4]; 25 µM, positive control): 75%

CC1=CC[C@@H](C(C)(C)O)CC1 [α-Terpineol]
IC50 [5]: 100 µg/mL (≈ 648 µM) | IC50 ([18]; Trypanosoma brucei): 6.04 µg/mL (≈ 39.2 µM) | IC90 ([18]; Trypanosoma brucei): 8.22 µg/mL (≈ 53.3 µM) | activity against T. brucei brucei blood stream forms [1]: slightly active

NCCC[C@](N)(C(=O)O)C(F)F [α-difluoromethylornithine]
T. brucei IC50 [18]: 4.792 µg/mL | T. brucei IC90 [18]: 7.760 µg/mL
